Where a name gives a salt, the structure may show the parent alone.
The compounds below were run against full-length USP7 (Homo sapiens (Human), UniProt Q93009) (assay: Enzymatic assay to determine IC50 of USP7 inhibitors (Ubiquitin-Rhodamine 110 cleavage)). Settings: 0.5 nM USP7, 0.5 μM Ubiquitin-Rhodamine 110, 45 min at 37° C.
Format: biochemical
How it was run: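 Enzyme: 0.5 nM full-length USP7 in HEPES pH 7.5 buffer with NaCl, DTT, BSA and Tween20, given 15 min at room temperature with DTT before compounds were added.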

Sequence of full-length USP7 (Q93009 whole entry): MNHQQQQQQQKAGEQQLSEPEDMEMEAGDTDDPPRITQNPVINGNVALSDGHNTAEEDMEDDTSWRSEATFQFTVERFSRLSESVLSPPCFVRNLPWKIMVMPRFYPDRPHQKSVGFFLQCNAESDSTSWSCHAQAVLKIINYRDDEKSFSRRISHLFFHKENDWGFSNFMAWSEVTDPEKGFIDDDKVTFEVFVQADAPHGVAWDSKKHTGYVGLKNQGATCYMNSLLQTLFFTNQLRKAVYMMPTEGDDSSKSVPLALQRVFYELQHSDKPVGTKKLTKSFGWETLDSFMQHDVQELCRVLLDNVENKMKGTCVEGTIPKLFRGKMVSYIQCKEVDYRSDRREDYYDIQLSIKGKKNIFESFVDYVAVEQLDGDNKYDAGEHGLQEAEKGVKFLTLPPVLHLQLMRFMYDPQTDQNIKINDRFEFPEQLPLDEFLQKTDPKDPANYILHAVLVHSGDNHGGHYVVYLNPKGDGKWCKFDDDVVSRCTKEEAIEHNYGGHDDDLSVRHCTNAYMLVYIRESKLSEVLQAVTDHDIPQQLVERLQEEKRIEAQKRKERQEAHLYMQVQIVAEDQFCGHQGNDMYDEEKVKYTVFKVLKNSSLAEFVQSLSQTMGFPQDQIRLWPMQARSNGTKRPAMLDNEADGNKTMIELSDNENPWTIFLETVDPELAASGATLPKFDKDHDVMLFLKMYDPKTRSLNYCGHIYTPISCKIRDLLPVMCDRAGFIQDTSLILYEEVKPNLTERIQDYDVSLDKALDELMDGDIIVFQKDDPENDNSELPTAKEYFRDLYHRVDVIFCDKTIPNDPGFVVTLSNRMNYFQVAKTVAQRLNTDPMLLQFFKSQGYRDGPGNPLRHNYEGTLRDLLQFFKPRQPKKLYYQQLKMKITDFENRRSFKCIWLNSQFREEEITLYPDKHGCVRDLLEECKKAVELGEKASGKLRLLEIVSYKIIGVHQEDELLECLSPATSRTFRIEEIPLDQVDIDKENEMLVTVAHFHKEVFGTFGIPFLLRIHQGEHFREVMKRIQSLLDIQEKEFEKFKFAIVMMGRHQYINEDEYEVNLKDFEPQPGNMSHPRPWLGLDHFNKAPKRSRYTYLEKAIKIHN

| IC50 [nM] | Structure (SMILES) |
| --- | --- |
| 500 to 1000 | Cc1cc(C(F)(F)F)nc(-c2ccnc3cc(CN4C(=O)C5C(C4=O)C5(C)C)sc23)c1C(=O)N1CC[C@H](NC(=O)[C@H](C)N)C1 (stereo partly drawn) [Example 110, (2S)-2-amino-N-((3S)-1-(2-(2-((6,6-dimethyl-2,4-dioxo-3-azabicyclo[3.1.0]hexan-3-yl)methyl)thieno[3,2-b]pyridin-7-yl)-4-methyl-6-(trifluoromethyl)nicotinoyl)pyrrolidin-3-yl)propanamide dihydrochloride] |
| 1000 to 10000 | Cc1cc(Cl)cc(-c2ccnc3ccoc23)c1O[C@H]1CCCNC1 [Example 150, (S)-7-(5-chloro-3-methyl-2-(piperidin-3-yloxy)phenyl)furo[3,2-b]pyridine 2,2,2-trifluoroacetate] |
| < 500 | Cc1cc(Cl)nc(-c2ccnc3cc(CN4C(=O)C5C(C4=O)C5(C)C)sc23)c1NC1CCNC1 (centres unmarked) [Example 126, 3-((7-(6-chloro-4-methyl-3-(pyrrolidin-3-ylamino)pyridin-2-yl)thieno[3,2-b]pyridin-2-yl)methyl)-6,6-dimethyl-3-azabicyclo[3.1.0]hexane-2,4-dione tetrahydrochloride] |
| < 500 | Cc1cc(C(F)(F)F)nc(-c2ccnc3cc(CN4C(=O)C5C(C4=O)C5(C)C)sc23)c1C(=O)N1C[C@@H](N)[C@H](F)C1 (stereo partly drawn) [Example 117, 3-((7-(3-((3R,4R)-3-amino-4-fluoropyrrolidine-1-carbonyl)-4-methyl-6-(trifluoromethyl)pyridin-2-yl)thieno[3,2-b]pyridin-2-yl)methyl)-6,6-dimethyl-3-azabicyclo[3.1.0]hexane-2,4-dione dihydrochloride] |
| < 500 | CN[C@H]1CCN(Cc2c(C)cc(C(F)(F)F)nc2-c2ccnc3cc(CN4C(=O)C5C(C4=O)C5(C)C)sc23)C1 (stereo partly drawn) [Example 160, 6,6-dimethyl-3-((7-(4-methyl-3-(((S)-3-(methylamino)pyrrolidin-1-yl)methyl)-6-(trifluoromethyl)pyridin-2-yl)thieno[3,2-b]pyridin-2-yl)methyl)-3-azabicyclo[3.1.0]hexane-2,4-dione hydrochloride] |
| < 500 | Cc1cc(Cl)nc(-c2ccnc3cc(CN4C(=O)C5C(C4=O)C5(C)C)sc23)c1NC1CCNCC1 (centres unmarked) [Example 127, 3-((7-(6-chloro-4-methyl-3-(piperidin-4-ylamino)pyridin-2-yl)thieno[3,2-b]pyridin-2-yl)methyl)-6,6-dimethyl-3-azabicyclo[3.1.0]hexane-2,4-dione tetrahydrochloride] |
| < 500 | Cc1cc(C(F)(F)F)nc(-c2ccnc3cc(CN4C(=O)C5C(C4=O)C5(C)C)sc23)c1C(=O)N1C[C@H]2CCN[C@H]2C1 (stereo partly drawn) [Example 108, 6,6-dimethyl-3-((7-(4-methyl-3-((3aR,6aR)-octahydropyrrolo[3,4-b]pyrrole-5-carbonyl)-6-(trifluoromethyl)pyridin-2-yl)thieno[3,2-b]pyridin-2-yl)methyl)-3-azabicyclo[3.1.0]hexane-2,4-dione dihydrochloride] |

Continued, compound first:

| Structure (SMILES) | IC50 [nM] |
| --- | --- |
| Cc1nc(C(F)(F)F)cc(-c2ccnc3cc(CN4C(=O)C5C(C4=O)C5(C)C)sc23)c1NC(=O)C1CCNC1 (racemic) [Example 64, N-(4-(2-((6,6-dimethyl-2,4-dioxo-3-azabicyclo[3.1.0]hexan-3-yl)methyl)thieno[3,2-b]pyridin-7-yl)-2-methyl-6-(trifluoromethyl)pyridin-3-yl)pyrrolidine-3-carboxamide 2,2,2-trifluoroacetate] | 1000 to 10000 |
| CCN[C@H]1CCN(C(=O)c2c(C)cc(C(F)(F)F)nc2-c2ccnc3cc(CN4C(=O)C5C(C4=O)C5(C)C)sc23)C1 (stereo partly drawn) [Example 73, 3-((7-(3-((S)-3-(ethylamino)pyrrolidine-1-carbonyl)-4-methyl-6-(trifluoromethyl)pyridin-2-yl)thieno[3,2-b]pyridin-2-yl)methyl)-6,6-dimethyl-3-azabicyclo[3.1.0]hexane-2,4-dione dihydrochloride] | < 500 |
| CC1(C)C2C(=O)N(Cc3cc4nccc(-c5cc(C(F)(F)F)cnc5C[C@@H]5CNCCO5)c4s3)C(=O)C21 (stereo partly drawn) [Example 99, 6,6-dimethyl-3-((7-(2-(((R)-morpholin-2-yl)methyl)-5-(trifluoromethyl)pyridin-3-yl)thieno[3,2-b]pyridin-2-yl)methyl)-3-azabicyclo[3.1.0]hexane-2,4-dione 2,2,2-trifluoroacetate] | < 500 |
| Cc1cc(C#N)nc(-c2ccnc3cc(CN4C(=O)C5C(C4=O)C5(C)C)sc23)c1C(=O)N1CC[C@H](N(C)C)C1 (stereo partly drawn) [Example 44, 6-(2-((6,6-dimethyl-2,4-dioxo-3-azabicyclo[3.1.0]hexan-3-yl)methyl)thieno[3,2-b]pyridin-7-yl)-5-((S)-3-(dimethylamino)pyrrolidine-1-carbonyl)-4-methylpicolinonitrile hydrochloride] | 1000 to 10000 |
| Cc1cc(C#N)nc(-c2ccnc3cc(CN4C(=O)C5C(C4=O)C5(C)C)sc23)c1C(=O)N1CCN(C)C[C@@H]1C (stereo partly drawn) [Example 52, 6-(2-((6,6-dimethyl-2,4-dioxo-3-azabicyclo[3.1.0]hexan-3-yl)methyl)thieno[3,2-b]pyridin-7-yl)-5-((S)-2,4-dimethylpiperazine-1-carbonyl)-4-methylpicolinonitrile dihydrochloride] | < 500 |
| COCC(=O)Nc1c(-c2ccnc3cc(CN4C(=O)C5C(C4=O)C5(C)C)sc23)cc(C(F)(F)F)nc1C (centres unmarked) [Example 61, N-(4-(2-((6,6-dimethyl-2,4-dioxo-3-azabicyclo[3.1.0]hexan-3-yl)methyl)thieno[3,2-b]pyridin-7-yl)-2-methyl-6-(trifluoromethyl)pyridin-3-yl)-2-methoxyacetamide 2,2,2-trifluoroacetate] | > 10000 |
| Cc1cc(C(F)(F)F)nc(-c2ccnc3cc(CN4C(=O)C5C(C4=O)C5(C)C)sc23)c1C[C@H]1CN(C)CCO1 (stereo partly drawn) [Example 97, 6,6-dimethyl-3-((7-(4-methyl-3-(((S)-4-methylmorpholin-2-yl)methyl)-6-(trifluoromethyl)pyridin-2-yl)thieno[3,2-b]pyridin-2-yl)methyl)-3-azabicyclo[3.1.0]hexane-2,4-dione dihydrochloride] | 1000 to 10000 |
| Cc1cc(Cl)nc(-c2ccnc3cc(CN4C(=O)C5C(C4=O)C5(C)C)sc23)c1O[C@H]1CCCNC1 (single isomer, unassigned) [Example 4, hydrochloride] | < 500 |
| Cc1cc(C(F)(F)F)nc(-c2ccnc3cc(CN4C(=O)C5C(C4=O)C5(C)C)sc23)c1C[C@@H]1CN(C)CCO1 (stereo partly drawn) [Example 98, 6,6-dimethyl-3-((7-(4-methyl-3-(((R)-4-methylmorpholin-2-yl)methyl)-6-(trifluoromethyl)pyridin-2-yl)thieno[3,2-b]pyridin-2-yl)methyl)-3-azabicyclo[3.1.0]hexane-2,4-dione dihydrochloride] | < 500 |
| Cc1cc(Cl)nc(-c2ccnc3cc(CN4C(=O)C5C(C4=O)C5(C)C)sc23)c1OC1CCNC1 (racemic) [Example 2, 3-((7-(6-chloro-4-methyl-3-(pyrrolidin-3-yloxy)pyridin-2-yl)thieno[3,2-b]pyridin-2-yl)methyl)-6,6-dimethyl-3-azabicyclo[3.1.0]hexane-2,4-dione hydrochloride] | < 500 |
| Cc1cc(C(F)(F)F)nc(-c2ccnc3cc(CN4C(=O)C5C(C4=O)C5(C)C)sc23)c1C(=O)N1CC[C@H](CF)C1 (stereo partly drawn) [Example 105, 3-((7-(3-((S)-3-(fluoromethyl)pyrrolidine-1-carbonyl)-4-methyl-6-(trifluoromethyl)pyridin-2-yl)thieno[3,2-b]pyridin-2-yl)methyl)-6,6-dimethyl-3-azabicyclo[3.1.0]hexane-2,4-dione hydrochloride] | < 500 |
| Cc1cc(C(F)(F)F)nc(-c2ccnc3cc(CN4C(=O)C5C(C4=O)C5(C)C)sc23)c1C[C@H]1CNCCO1 (stereo partly drawn) [Example 95, 6,6-dimethyl-3-((7-(4-methyl-3-(((S)-morpholin-2-yl)methyl)-6-(trifluoromethyl)pyridin-2-yl)thieno[3,2-b]pyridin-2-yl)methyl)-3-azabicyclo[3.1.0]hexane-2,4-dione dihydrochloride] | < 500 |
| Cc1cc(C#N)nc(-c2ccnc3cc(CN4C(=O)C5C(C4=O)C5(C)C)sc23)c1C(=O)N1CCOCC1 (centres unmarked) [Example 58, 6-(2-((6,6-dimethyl-2,4-dioxo-3-azabicyclo[3.1.0]hexan-3-yl)methyl)thieno[3,2-b]pyridin-7-yl)-4-methyl-5-(morpholine-4-carbonyl)picolinonitrile hydrochloride] | 500 to 1000 |

Same assay, conditions: at 1 μM of the test compound; given where IC50 not determined yet; read-out: percent value of inhibition of USP7 activity

| inhibition at 1 µM [%] | Structure (SMILES) |
| --- | --- |
| 50 to 70 | CN[C@H]1CCN(C(=O)c2c(C)cc(C(F)(F)F)nc2-c2ccnc3c(F)c(CN4C(=O)C5C(C4=O)C5(C)C)sc23)C1 (stereo partly drawn) [Example 174, 3-((3-fluoro-7-(4-methyl-3-((S)-3-(methylamino)pyrrolidine-1-carbonyl)-6-(trifluoromethyl)pyridin-2-yl)thieno[3,2-b]pyridin-2-yl)methyl)-6,6-dimethyl-3-azabicyclo[3.1.0]hexane-2,4-dione hydrochloride] |
| < 20 | Cc1c(N)cc(-c2ccnc3cc(CN4C(=O)C5C(C4=O)C5(C)C)sc23)n1C[C@@H]1CNCCO1 (stereo partly drawn) [Example 176, 3-((7-(4-amino-5-methyl-1-(((S)-morpholin-2-yl)methyl)-1H-pyrrol-2-yl)thieno[3,2-b]pyridin-2-yl))methyl)-6,6-dimethyl-3-azabicyclo[3.1.0]hexane-2,4-dione hydrochloride] |

Same assay, conditions: read-out: percent value of inhibition of USP7 activity

| Structure (SMILES) | inhibition at 1 µM [%] |
| --- | --- |
| CC1(C)C2C(=O)N(Cc3cc4nccc(-c5nccn5CC5CNCCO5)c4s3)C(=O)C21 (centres unmarked) [Example 147, 6,6-dimethyl-3-((7-(1-(morpholin-2-ylmethyl)-1H-imidazol-2-yl)thieno[3,2-b]pyridin-2-yl)methyl)-3-azabicyclo[3.1.0]hexane-2,4-dione 2,2,2-trifluoroacetate] | < 20 |

Source: patent US12404279B2, “Deubiquitinase inhibitors and methods of use thereof” (Molecure S.A., priority 2021, dated 2025)
